From patent publication US20220387608A1, “ADRENOMEDULLIN-ANALOGUES FOR LONG-TERM STABILIZATION AND THEIR USE” (Bayer Aktiengesellschaft, priority 2019, published 2022) come the findings set out here.

This data set in a line: Stability determination of TAMRA-labelled adrenomedullin analogues in human blood plasma. It counts as in vitro ADME. Particulars: 37° C., 10^-5 M, slow-decay phase half-life, read-out: t1/2 (slow) (converted). The method, then: The stability of the peptides was investigated using fluorescently labeled analogues, which were prepared as described above.
The TAMRA-labeled analogues were dissolved in 1.5 m1 of human blood plasma to a concentration of 10^−5 M and incubated at 37° C. under constant shaking. Samples of 150 μl were taken at different time points and precipitated with 300 μl Ethanol/ACN (1:1) for at least 1 h at −20° C. After centrifugation for 30 s at 12000 rpm, the supernatant was collected and incubated at −20° C. for at least 3 h. Subsequently, it was transferred into Costar® Spin-X® Centrifuge Tube Filters (0.22 μm) and centrifuged for 1 h at 12000 rpm. The samples were analyzed by RP-HPLC using a VariTide RPC column (Agilent Technologies, 250 mm×4.6 mm, […], 200 Å) with linear gradients of 0.1% TFA in water and 0.08% TFA in ACN; fluorescence measurement (λex=525 nm; λem=572 nm) was used for the detection of the analogues and their N-terminal fragments. The percentage of intact peptide was determined by peak integration. The values of peaks containing additional cleavage fragments were corrected by comparing intensities of cleavage fragments and intact peptide using MALDI-MS analysis (UltraflexIII, Bruker). The stability of the peptides was calculated with GraphPad Prism 5 (GraphPad Software) using a two phase exponential decay function for the determination of slow-decay phase half-lives (ln(2)/Kslow; Kslow: rate constant of slow part of exponential decay).

Consider `CC[C@H](C)[C@H](NC(=O)[C@H](CCC(N)=O)NC(=O)[C@H](Cc1c[nH]cn1)NC(=O)[C@H](C)NC(=O)[C@H](CC(C)C)NC(=O)[C@H](CCCCN)NC(=O)[C@H](CCC(N)=O)NC(=O)[C@@H](NC(=O)[C@@H](NC(=O)[C@@H]1CSSC[C@H](NC(=O)CNC(=O)CNC(=O)c2ccc3c(c2)C2(OC3=O)c3ccc(N(C)C)cc3Oc3cc(N(C)C)ccc32)C(=O)N[C@@H](CCCNC(=N)N)C(=O)N[C@@H](Cc2ccccc2)C(=O)NCC(=O)N[C@@H]([C@@H](C)O)C(=O)N1)[C@@H](C)O)C(C)C)C(=O)N[C@@H](Cc1ccc(O)cc1)C(=O)N[C@@H](CCC(N)=O)C(=O)N[C@@H](Cc1ccccc1)C(=O)N[C@H](C(=O)N[C@@H](CC(=O)O)C(=O)N[C@@H](CCCCN)C(=O)N[C@@H](CC(=O)O)C(=O)N[C@@H](CCCCN)C(=O)N[C@@H](CC(=O)O)C(=O)N[C@@H](CC(N)=O)C(=O)N[C@H](C(=O)N[C@@H](C)C(=O)N1CCC[C@H]1C(=O)N[C@@H](CCCNC(=N)N)C(=O)N[C@@H](CO)C(=O)N[C@@H](CCCCN)C(=O)N[C@H](C(=O)N[C@@H](CO)C(=O)N1CCC[C@H]1C(=O)N[C@@H](CCC(N)=O)C(=O)NCC(=O)N[C@@H](Cc1ccc(O)cc1)C(N)=O)[C@@H](C)CC)C(C)C)[C@@H](C)O` [TAM-control, reference compound], for which the half-life was 12 h.
